Results as given in patent US9822114B2, “Tricyclic oxazolidinone antibiotic compounds” (Idorsia Pharmaceuticals Ltd, priority 2008, dated 2017).
Converted amounts (≈) assume the structure as drawn.

System: M. catarrhalis A894
Assay: Minimal inhibitory concentration (MIC), microdilution method in cation-adjusted Mueller-Hinton Broth (CLSI M7-A7)
Format: cell-based
Conditions: strain A894; for MIC: Moraxella catarrhalis
Description: Minimal inhibitory concentrations (MICs; mg/1) were determined in cation-adjusted Mueller-Hinton Broth by a microdilution method following the description given in “Methods for Dilution Antimicrobial Susceptibility Tests for Bacteria that Grow Aerobically”, Approved standard, 7th ed., Clinical and Laboratory Standards Institute (CLSI) Document M7-A7, Wayne, Pa., USA, 2006.

SMILES	MIC	MIC for M. catarrhalis A894
C#Cc1ccc2ccc(=O)n3c2c1C(NCCC[C@@H]1CN(c2ccc4c(c2)NC(=O)CS4)C(=O)O1)C3 (mixture of isomers) [Example 180, (RS)-9-ethynyl-1-{3-[(R)-2-oxo-3-(3-oxo-3,4-dihydro-2H-benzo[1,4]thiazin-6-yl)-oxazolidin-5-yl]-propylamino}-1,2-dihydro-pyrrolo[3,2,1-ij]quinolin-4-one]	≤ 0.031 µg/mL	–
O=C1COc2ccc(N3C[C@H](CCNCC4CN5C(=O)CCc6ccc(F)c4c65)OC3=O)cc2N1 (mixture of isomers) [Example 187, (RS)-9-fluoro-1-({2-[(S)-2-oxo-3-(3-oxo-3,4-dihydro-2H-benzo[1,4]oxazin-6-yl)-oxazolidin-5-yl]-ethylamino}-methyl)-1,2,5,6-tetrahydro-pyrrolo[3,2,1-ij]quinolin-4-one]	≤ 0.031 µg/mL	–
O=C1CSc2ccc(N3C[C@@H](CCNCC4Cn5c(=O)ccc6ccc(F)c4c65)OC3=O)nc2N1 (mixture of isomers) [Example 197, (RS)-9-fluoro-1-({2-[(R)-2-oxo-3-(3-oxo-3,4-dihydro-2H-pyrido[3,2-b][1,4]thiazin-6-yl)-oxazolidin-5-yl]-ethylamino}-methyl)-1,2-dihydro-pyrrolo[3,2,1-ij]quinolin-4-one]	≤ 0.031 µg/mL	–
O=C1CSc2ccc(N3C[C@H](CCNCC4Cn5c(=O)ccc6ccc(F)c4c65)OC3=O)nc2N1 (mixture of isomers) [Example 198, (RS)-9-fluoro-1-({2-[(S)-2-oxo-3-(3-oxo-3,4-dihydro-2H-pyrido[3,2-b][1,4]thiazin-6-yl)-oxazolidin-5-yl]-ethylamino}-methyl)-1,2-dihydro-pyrrolo[3,2,1-ij]quinolin-4-one]	≤ 0.031 µg/mL	–
O=C1CSc2ccc(N3C[C@@H](CCCNC4Cn5c(=O)cnc6ccc(F)c4c65)OC3=O)nc2N1 (mixture of isomers) [Example 199, (RS)-7-fluoro-6-{3-[(R)-2-oxo-3-(3-oxo-3,4-dihydro-2H-pyrido[3,2-b][1,4]thiazin-6-yl)-oxazolidin-5-yl]-propylamino}-5,6-dihydro-pyrrolo[1,2,3-de]quinoxalin-3-one]	≤ 0.031 µg/mL	–
O=C1CSc2ccc(N3C[C@@H](CCCNC4CN5C(=O)CNc6ccc(F)c4c65)OC3=O)nc2N1 (mixture of isomers) [Example 200, (RS)-7-fluoro-6-{3-[(R)-2-oxo-3-(3-oxo-3,4-dihydro-2H-pyrido[3,2-b][1,4]thiazin-6-yl)-oxazolidin-5-yl]-propylamino}-1,2,5,6-tetrahydro-pyrrolo[1,2,3-de]quinoxalin-3-one]	≤ 0.031 µg/mL	–
CN1CC(=O)N2CC(NCCC[C@@H]3CN(c4ccc5c(n4)NC(=O)CS5)C(=O)O3)c3c(F)ccc1c32.Cl.Cl (mixture of isomers) [Example 201, (RS)-7-fluoro-6-{3-[(R)-2-oxo-3-(3-oxo-3,4-dihydro-2H-pyrido[3,2-b][1,4]thiazin-6-yl)-oxazolidin-5-yl]-propylamino}-1-methyl-1,2,5,6-tetrahydro-pyrrolo[1,2,3-de]quinoxalin-3-one dihydrochloride]	≤ 0.031 µg/mL	–
Cl.Cl.O=C1CSc2ccc(N3C[C@@H](CCCNC4CN5C(=O)CN(CCCO)c6ccc(F)c4c65)OC3=O)nc2N1 (mixture of isomers) [Example 202, (RS)-7-fluoro-6-{3-[(R)-2-oxo-3-(3-oxo-3,4-dihydro-2H-pyrido[3,2-b][1,4]thiazin-6-yl)-oxazolidin-5-yl]-propylamino}-1-(3-hydroxypropyl)-1,2,5,6-tetrahydro-pyrrolo[1,2,3-de]quinoxalin-3-one dihydrochloride]	0.063 µg/mL	–
Cc1ccc(N2C[C@@H](CCNC[C@@H]3Cn4c(=O)ccc5ccc(F)c3c54)OC2=O)cc1F (racemic) [Example 6, (1RS)-9-fluoro-1-({2-[(RS)-3-(3-fluoro-4-methyl-phenyl)-2-oxo-oxazolidin-5-yl]-ethylamino}-methyl)-1,2-dihydro-pyrrolo[3,2,1-U]quinolin-4-one]	–	0.125 mg/L
O=C1CSc2ccc(N3C[C@@H](CCN[C@H]4Cn5c(=O)ccc6ccc(F)c4c65)OC3=O)cc2N1 (racemic) [Example 14, (1RS)-9-fluoro-1-{2-[(RS)-2-oxo-3-(3-oxo-3,4-dihydro-2H-benzo[1,4]thiazin-6-yl)-oxazolidin-5-yl]-ethylamino}-1,2-dihydro-pyrrolo[3,2,1-ij]quinolin-4-one]	≤ 0.031 µg/mL	–
O=C1O[C@H](CCNC[C@@H]2Cn3c(=O)ccc4ccc(F)c2c43)CN1c1cc2c(cn1)OCCO2 (racemic) [Example 42, (RS)-1-({2-[(RS)-3-(2,3-dihydro-[1,4]dioxino[2,3-c]pyridin-7-yl)-2-oxo-oxazolidin-5-yl]-ethylamino}-methyl)-9-fluoro-1,2-dihydro-pyrrolo[3,2,1-ij]quinolin-4-one]	2 µg/mL (≈ 4.29 µM)	–
O=C1O[C@H](CCNC[C@@H]2Cn3c(=O)ccc4ccc(F)c2c43)CN1c1ccc2c(n1)OCCO2 (racemic) [Example 43, (RS)-1-({2-[(RS)-3-(2,3-dihydro-[1,4]dioxino[2,3-b]pyridin-6-yl)-2-oxo-oxazolidin-5-yl]-ethylamino}-methyl)-9-fluoro-1,2-dihydro-pyrrolo[3,2,1-ij]quinolin-4-one]	1 µg/mL (≈ 2.14 µM)	–
O=C1COc2ccc(N3C[C@@H](CCNC[C@@H]4Cn5c(=O)ccc6ccc(F)c4c65)OC3=O)nc2N1 (racemic) [Example 47, (RS)-9-fluoro-1-({2-[(RS)-2-oxo-3-(3-oxo-3,4-dihydro-2H-pyrido[3,2-b][1,4]oxazin-6-yl)-oxazolidin-5-yl]-ethylamino}-methyl)-1,2-dihydro-pyrrolo[3,2,1-ij]quinolin-4-one]	≤ 0.031 µg/mL	–
O=C1CSc2ccc(N3C[C@@H](CCNCC4Cn5c(=O)ccc6cccc4c65)OC3=O)cc2N1 (mixture of isomers) [Example 53, (RS)-1-({2-[(R)-2-oxo-3-(3-oxo-3,4-dihydro-2H-benzo[1,4]thiazin-6-yl)-oxazolidin-5-yl]-ethylamino}-methyl)-1,2-dihydro-pyrrolo[3,2,1-U]quinolin-4-one]	–	≦0.031 mg/l
O=C1CSc2ccc(N3C[C@H](CCNCC4Cn5c(=O)ccc6cccc4c65)OC3=O)cc2N1 (mixture of isomers) [Example 61, (RS)-1-({2-[(S)-2-oxo-3-(3-oxo-3,4-dihydro-2H-benzo[1,4]thiazin-6-yl)-oxazolidin-5-yl]-ethylamino}-methyl)-1,2-dihydro-pyrrolo[3,2,1-U]quinolin-4-one]	–	≦0.031 mg/l
O=C1COc2ccc(N3C[C@H](CCNCC4Cn5c(=O)ccc6cccc4c65)OC3=O)cc2N1 (mixture of isomers) [Example 62, (RS)-1-({2-[(S)-2-oxo-3-(3-oxo-3,4-dihydro-2H-benzo[1,4]oxazin-6-yl)-oxazolidin-5-yl]-ethylamino}-methyl)-1,2-dihydro-pyrrolo[3,2,1-U]quinolin-4-one]	–	≦0.031 mg/l
O=C1CSc2ccc(N3C[C@@H](CCCNC[C@@H]4Cn5c(=O)ccc6cccc4c65)OC3=O)cc2N1 (racemic) [Example 83, (RS)-1-({3-[(RS)-2-oxo-3-(3-oxo-3,4-dihydro-2H-benzo[1,4]thiazin-6-yl)-oxazolidin-5-yl]-propylamino}-methyl)-1,2-dihydro-pyrrolo[3,2,1-ij]quinolin-4-one]	≤ 0.031 µg/mL	–
O=C1CSc2ccc(N3C[C@H]([C@H](O)CCN[C@H]4Cn5c(=O)ccc6ccc(F)c4c65)OC3=O)cc2N1 (racemic) [Example 113, (1RS)-9-fluoro-1-{(3RS)-3-hydroxy-3-[(5RS)-2-oxo-3-(3-oxo-3,4-dihydro-2H-benzo[1,4]thiazin-6-yl)-oxazolidin-5-yl]-propylamino}-1,2-dihydro-pyrrolo[3,2,1-ij]quinolin-4-one]	≤ 0.031 µg/mL	–
O=C1CSc2ccc(N3C[C@@H](CCCCN[C@H]4Cn5c(=O)ccc6ccc(F)c4c65)OC3=O)cc2N1 (racemic) [Example 159, (RS)-9-fluoro-1-{4-[(RS)-2-oxo-3-(3-oxo-3,4-dihydro-2H-benzo[1,4]thiazin-6-yl)-oxazolidin-5-yl]-butylamino}-1,2-dihydro-pyrrolo[3,2,1-ij]quinolin-4-one]	≤ 0.031 µg/mL	–
COC(=O)[C@H]1[C@H](NCCC[C@@H]2CN(c3ccc4c(c3)NC(=O)CS4)C(=O)O2)c2c(F)ccc3ccc(=O)n1c23 (relative stereo) [Example 181, (1R*,2R*)-9-fluoro-4-oxo-1-{3-[(R)-2-oxo-3-(3-oxo-3,4-dihydro-2H-benzo[1,4]thiazin-6-yl)-oxazolidin-5-yl]-propylamino}-1,2-dihydro-4H-pyrrolo[3,2,1-ij]quinoline-2-carboxylic acid methyl ester]	≤ 0.031 µg/mL	–
O=C1CSc2ccc(N3C[C@@H](CCCN[C@@H]4c5c(F)ccc6ccc(=O)n(c56)[C@H]4CO)OC3=O)cc2N1 (relative stereo) [Example 182, (1R*,2R*)-9-fluoro-2-hydroxymethyl-1-{3-[(R)-2-oxo-3-(3-oxo-3,4-dihydro-2H-benzo[1,4]thiazin-6-yl)-oxazolidin-5-yl]-propylamino}-1,2-dihydro-pyrrolo[3,2,1-ij]quinolin-4-one]	≤ 0.031 µg/mL	–
C[C@H]1[C@H](NCCC[C@@H]2CN(c3ccc4c(c3)NC(=O)CS4)C(=O)O2)c2c(F)ccc3ccc(=O)n1c23 (relative stereo) [Example 183, (1R*,2S*)-9-fluoro-2-methyl-1-{3-[(R)-2-oxo-3-(3-oxo-3,4-dihydro-2H-benzo[1,4]thiazin-6-yl)-oxazolidin-5-yl]-propylamino}-1,2-dihydro-pyrrolo[3,2,1-ij]quinolin-4-one]	≤ 0.031 µg/mL	–
C[C@H]1[C@H](NCCC[C@H]2CN(c3ccc4c(c3)NC(=O)CS4)C(=O)O2)c2c(F)ccc3ccc(=O)n1c23 (relative stereo) [Example 184, (1R*,2S*)-9-fluoro-2-methyl-1-{3-[(S)-2-oxo-3-(3-oxo-3,4-dihydro-2H-benzo[1,4]thiazin-6-yl)-oxazolidin-5-yl]-propylamino}-1,2-dihydro-pyrrolo[3,2,1-ij]quinolin-4-one]	≤ 0.031 µg/mL	–
